In the assay the test system is low-density lipoproteins (LDL). The assay can be described thus: Anti-oxidant test (TBARS production, Cu-induced LDL oxidation). It counts as biochemical. The following applies: 5 μM CuSO4, 20 μg LDL, 37° C., 2 hours; TBARS absorbance 540 nm; FIG. 1. The protocol:
In this experiment, production level of thiobarbituric acid-reactive substances (TBARS) was measured to determine oxidization level of low-density lipoproteins (LDL). Specifically, […], of each test article was mixed with 5 μM copper (II) sulfate (CuSO4) and 20 μg of LDL, and then incubated at 37° C. for 2 hours. 250 μL of 20% tricholoroacetic acid was added to the precipitated protein. After that, 250 μL of 0.67% 2-thiobarbituric acid was added to the obtained mixture and incubated at 80° C. for 30 minutes. The final resultant was separated to give a supernatant by centrifugation at 3,000 g for 5 minutes. 300 μL of the supernatant was taken to a 96-well plate to measure its absorbance under 540 nm.

Take `CC(C)(Sc1cc(C(C)(C)C)c(O)c(C(C)(C)C)c1)Sc1cc(C(C)(C)C)c(O)c(C(C)(C)C)c1` [probucol, Probucol]: the “inhibitory concentration (IC50) for anti-oxidant activity (rank order)” value is given as “follow it sequentially”.
Regarding Hp β subunit: haptoglobin β subunit, the “inhibitory concentration (IC50) for anti-oxidant activity (rank order)” value is reported as “follow it sequentially”.

The values above are taken from patent US10195248B2, “Use of haptoglobin subunit for promoting wound healing” (Taipei Medical University, priority 2016, dated 2019).
